{"source": "patent EP3003384B1", "about": "(Lamda Laboratories S.A., priority 2014, dated 2015)", "origin": "cited, not measured here", "conditions": "at room temperature", "note": "Counter-ions that a name gives are not always drawn.", "data": [{"smiles": "CNCC[C@@H](Oc1ccccc1C)c1ccccc1", "note": "[atomoxetine hydrochloride]", "values": [{"measurement": "soluble in water", "value": 27.8, "unit": "mg/mL"}]}]}
